Legend:
[1] = system: monocyte-free human T cells; assay: Inhibition of 5-HT-dependent T cell proliferation; assay type: cell-based; settings: PWM (1:200) and 5-HT (100 μM) stimulated T cells, 3H-thymidine incorporation on day 7, tested at 33 μM-0.1 μM
Description: The in vitro activity of the compounds according to the invention results from their capability to inhibit T cell proliferation, which is previously stimulated by serotonin.
Inhibition of 5-HT-dependent T cell proliferation
Peripheral mononuclear blood cells (PBMC) are obtained from the buffy coat of the blood of healthy subjects. After isolation by means of isolymph gradients (Pharmacia), the PBMC are washed twice and used directly. Purified T cells are obtained by E rosette formation with sheep erythrocytes [cf. Blue, M. -L., J. F. Daley, H. Levine, K. A. Craig and S. F. Schlossmann, 1986, Biosynthesis and surface expression of T8 by peripheral blood T4+ cells in vitro, J. Immunol. 137, 1202]. Monocytes are partially removed by adhesion to tissue culture plates or flasks. PBMC, T cells or purified T cells (depleted in monocytes) at 5×10^5 /ml, 100 μl/well are cultured in RPMI 1640 medium with 10% fetal calf serum (GIBCO) and L-glutamine in 96-well microculture plates (Becton-Dickinson) under a 5% CO2 atmosphere at 37° C. for 7 days. The cultures are treated with 1 μCi of ^3 H-thymidine for 6 h on the 7th day and collected on filter paper, and the incorporated radioactivity is determined by means of liquid scintillation counting.
The test substances are dissolved in 10 mM HCl in order to achieve a final concentration of 1 mM in each case. The compounds are diluted serially 3× with medium in order to obtain a final concentration between 33 μM-0.1 μM. PWM (1:200, pokeweed mitogen) and 5-HT (100 μM, serotonin), which contain the test substances, are added to monocyte-free human T cells. The positive control (maximum proliferation) is obtained from cultures containing T cells, PWM and 5-HT. The negative control (minimal proliferation) is obtained from cultures containing T cells and PWM without 5-HT. The inhibitory activity of the test substances is expressed as the IC50 in μM.

Lewis rats = assay: Adjuvant arthritis model in the rat; assay type: in vivo; settings: Freund's adjuvant arthritis, malleolus diameter day 16 vs day 0, dosing on days 0, 1, 2, 5, 7, 9, 12 and 14
Description: Adjuvant arthritis model in the rat
Freund's adjuvant (FA) is prepared by addition of 10 mg/ml of heat-killed Mycobacterium butyricum to extra-heavy mineral oil. Lewis rats receive a 0.1 ml injection of FA (1 mg/animal) subcutaneously in the right hind paw. An acute inflammation takes place there, which is characterized by reddening, edema and a predominant neutrophilic cell infiltration (primary reaction). Tumescent areas in the treated paw on day 5 are followed between day 10-12 by an increase in the swelling (chronic inflammatory reaction) and the occurrence of a swelling in the opposite untreated paw (secondary immune response).
The cell infiltration of the chronic inflammation and the second immune response are mainly mononuclear, which indicates the presence of T-cell mediated immunity. The animals are observed daily, and the swelling is measured in millimeters on days 12 and 16 using a hand-adjustable micrometer. The swelling reaches its peak on the 16th day, on which the animals are sacrificed and tissue samples are taken for histological evaluation.
The extent of the swelling is determined by calculation of the greatest difference in the malleolus diameter between the 16th and the 0th day.
The animals receive the compounds according to the invention in a suspension of 5% polyethylene glycol and 0.5% Tween 80 in phosphate buffer solution p.o. or i.p. on days 0, 1, 2, 5, 7, 9, 12 and 14 [cf. for this purpose L. Sokoloff, 1984, Int. Rev. Exp. Pathol. 26, 107; M. E. J. Bittingham et al., 1989, J. Exp. Med. 171, 339; K. M. Connolly et al., 1989, Agents and Actions 27, 328].

SMILES	IC50 [1]	Inhibition of the swelling in % after administration of 10 mg/kg i.p. (Lewis rats)
CC12c3ccccc3C(c3ccccc31)C1CN(CCCN3CCN(C(c4ccccc4)c4ccccc4)CC3)CC12 (centres unmarked) [Example 20]	500 nM	79%
CC(C)(C)c1ccc(CN2CCN(CCCN3C(=O)C4C5c6ccccc6C(c6ccccc65)C4C3=O)CC2)cc1 (centres unmarked) [Example 6]	3000 nM	24%
O=C1C2C3c4ccccc4C(c4ccccc43)C2C(=O)N1CCCN1CCN(C2CCCC2)CC1 (centres unmarked) [Example 10]	30000 nM	–
O=C1C2C3c4ccccc4C(c4ccccc43)C2C(=O)N1CCCN1CCN(C(c2ccc(F)cc2)c2ccc(F)cc2)CC1 (centres unmarked) [Example 1]	> 10000 nM	–
FC(F)(F)c1ccccc1CCN1CCN(CCCN2CC3C4c5ccccc5C(c5ccccc54)C3C2)CC1 (centres unmarked) [Example 16]	5000 nM	13%
Fc1ccc(C(CCCN2CCN(CCCN3CC4C5c6ccccc6C(c6ccccc65)C4C3)CC2)c2ccc(F)cc2)cc1 (centres unmarked) [Example 23]	100 nM	–
c1ccc(C(c2ccccc2)N2CCN(CCCN3CC4C5c6ccccc6C(c6ccccc65)C4C3)CC2)cc1 (centres unmarked) [Example 21]	500 nM	0.5%
O=C1C2C3c4ccccc4C(c4ccccc43)C2C(=O)N1CCCN1CCN(C(c2ccccc2)c2ccc(Cl)cc2)CC1 (centres unmarked) [Example 8]	50000 nM	–
O=C1C2C3c4ccccc4C(c4ccccc43)C2C(=O)N1CCCN1CCN(C(c2ccccc2)c2ccccc2)CC1 (centres unmarked) [Example 4]	> 10000 nM	–
c1cnc(N2CCN(CCCCN3CC4C5c6ccccc6C(c6ccccc65)C4C3)CC2)nc1 (centres unmarked) [Example 17]	> 10000 nM	–
Fc1ccc(C(c2ccc(F)cc2)N2CCN(CCCN3CC4C5c6ccccc6C(c6ccccc65)C4C3)CC2)cc1 (centres unmarked) [Example 13]	–	2%
c1ccc2c(c1)C1c3ccccc3C2C2CN(CCCN3CCN(C4CCCC4)CC3)CC12 (centres unmarked) [Example 24]	6000 nM	–
CC(C)(C)c1ccc(CN2CCN(CCCN3CC4C5c6ccccc6C(c6ccccc65)C4C3)CC2)cc1 (centres unmarked) [Example 18]	2000 nM	–
c1ccc2c(c1)C1c3ccccc3C2C2CN(CCCN3CCN(C4CCCCCC4)CC3)CC12 (centres unmarked) [Example 19]	5000 nM	–
O=C1C2C3c4ccccc4C(c4ccccc43)C2C(=O)N1CCCN1CCN(c2ncccn2)CC1 (centres unmarked) [Example 3]	> 10000 nM	–
Clc1ccc(C(c2ccccc2)N2CCN(CCCN3CC4C5c6ccccc6C(c6ccccc65)C4C3)CC2)cc1 (centres unmarked) [Example 26]	1000 nM	–
O=C1C2C3c4ccccc4C(c4ccccc43)C2C(=O)N1CCCN1CCN(CCc2ccccc2C(F)(F)F)CC1 (centres unmarked) [Example 5]	2000 nM	24%
c1cnc(N2CCN(CCCN3CC4C5c6ccccc6C(c6ccccc65)C4C3)CC2)nc1 (centres unmarked) [Example 15]	2000 nM	–
